Patent publication US20250282754A1, “BICYCLIC COMPOUNDS AND THEIR USE AS PEST CONTROL AGENTS” (Pl Industries Ltd., priority 2022, published 2025)

Key:
Type in all cases: in vivo
[1] = tested on: Bemisia tabaci; experiment: Bemisia tabaci leaf dip test (brinjal leaves, whitefly adults); conditions: foliar, dead and moribund whitefly adults 72 h after release, compared to untreated controls, read-out: percent mortality
Summary of the method: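 Brinjal leaves were dipped 10 s in compound diluted in 0.01% Triton-X, dried, and placed on agar, then exposed to freshly emerged whitefly adults at 25° C, 70% RH. Dead plus moribund adults were counted at 72 h, and percent mortality was calculated relative to untreated controls.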

[2] = tested on: Myzus persicae; experiment: Myzus persicae leaf dip test (capsicum leaves, third instar nymphs); conditions: foliar, dead and moribund third instar nymphs 72 h after release, compared to untreated controls, read-out: percent mortality
Protocol: The leaf dip method was used for testing, wherein the required quantity of the compound was weighed and dissolved in a tube containing a solvent solution. The tube was put on a vortex at 2000 rpm for proper mixing and then diluted with a 0.01% Triton-X solution to the desired test concentration. Capsicum leaves were dipped in the compound solution for 10 seconds, shade dried for 20 min and then placed, with the abaxial side of the leaf up, in single cells of a bio-assay tray containing 4 ml of a solidified 1% agar-agar solution. Known numbers of third instar nymphs of Myzus persicae, collected in petri plates, were released into the cell with the treated leaf and the cell was covered with a perforated lid for better aeration. The trays were kept in a plant growth chamber at a temperature of 25° C. and a relative humidity of 70%. Observations on dead, moribund and alive nymphs were recorded 72 h after the release. Percent mortality was calculated by combining dead and moribund nymphs and comparing the result with the one of the untreated controls. The compounds

[3] = tested on: Nilaparvata lugens; experiment: Nilaparvata lugens seedling dip test (paddy seedlings, third instar nymphs); conditions: dead and moribund third instar nymphs 72 h after release, compared to untreated controls, read-out: percent mortality
Protocol: The seedling dip method was used for testing, wherein the required quantity of the compound was weighed and dissolved in a tube containing a solvent solution. The tube was put on a vortex at 2000 rpm for proper mixing and then diluted with a 0.01% Triton-X solution to the desired test concentration. Paddy seedlings were dipped in the compound solution for 10 seconds, shade dried for 20 min and then the seedlings were placed in glass test tubes with the roots kept in water. 15 third instar nymphs of Nilaparvata lugens were released into each test tube and the tubes were kept in a plant growth chamber at a temperature of 25° C. and relative humidity of 75%. Observations on dead, moribund and alive nymphs were recorded 72 h after the release. Percent mortality was calculated by combining dead and moribund nymphs and comparing the result to the one of the untreated controls. The compounds

SMILES | mortality at 300 ppm [1] | mortality at 300 ppm [2] | mortality at 300 ppm [3]
CS(C)(=O)=Nc1ccc2nn(-c3cccnc3)cc2c1 [Compound 1] | ≥ 70% | ≥ 70% | ≥ 70%
CCS(C)(=O)=Nc1ccc2nn(-c3cccnc3)cc2c1 (centres unmarked) [Compound 2] | – | ≥ 70% | ≥ 70%
CCS(=O)(CC)=Nc1ccc2nn(-c3cccnc3)cc2c1 [Compound 3] | – | ≥ 70% | ≥ 70%
CC(C)S(=O)(=Nc1ccc2nn(-c3cccnc3)cc2c1)C(C)C [Compound 28] | ≥ 70% | ≥ 70% | ≥ 70%
CCS(=O)(=Nc1ccc2nn(-c3cccnc3)cc2c1)C(C)C (centres unmarked) [Compound 29] | ≥ 70% | ≥ 70% | ≥ 70%
CCS(=O)(=Nc1ccc2nn(-c3cncnc3)cc2c1)C(C)C (centres unmarked) [Compound 32] | ≥ 70% | ≥ 70% | ≥ 70%
CCS(=O)(=Nc1ccc2nn(-c3cncc(F)c3)cc2c1)C(C)C (centres unmarked) [Compound 41] | – | ≥ 70% | ≥ 70%
O=S(CCC(F)(F)F)(=Nc1ccc2nn(-c3cncnc3)cc2c1)c1ccc(F)cc1 (centres unmarked) [Compound 64] | – | ≥ 70% | ≥ 70%
CCS(=O)(=Nc1cccc2nn(-c3cccnc3)cc12)C(C)C (centres unmarked) [Compound 71] | ≥ 70% | ≥ 70% | ≥ 70%
CCS(=O)(CC)=Nc1cccc2nn(-c3cccnc3)cc12 [Compound 73] | ≥ 70% | ≥ 70% | ≥ 70%
CS(C)(=O)=NC(=O)c1cccc2nn(-c3cccnc3)cc12 [Compound 92, N-(dimethyl(oxo)-λ^6-sulfaneylidene)-2-(pyridin-3-yl)-2H-indazole-4-carboxamide] | – | ≥ 70% | ≥ 70%
COc1nn(-c2ccc3nn(-c4cccnc4)cc3c2)c(=O)n1C [Compound 110, 5-methoxy-4-methyl-2-(2-(pyridin-3-yl)-2H-indazol-5-yl)-2,4-dihydro-3H-1,2,4-triazol-3-one] | ≥ 70% | ≥ 70% | –
COc1nn(-c2ccc3nn(-c4cncc(F)c4)cc3c2)c(=O)n1C [Compound 112, 2-(2-(5-fluoropyridin-3-yl)-2H-indazol-5-yl)-5-methoxy-4-methyl-2,4-dihydro-3H-1,2,4-triazol-3-one] | – | ≥ 70% | ≥ 70%
COc1nn(-c2ccc3nn(-c4cncnc4)cc3c2)c(=O)n1C [Compound 119, 5-methoxy-4-methyl-2-(2-(pyrimidin-5-yl)-2H-indazol-5-yl)-2,4-dihydro-3H-1,2,4-triazol-3-one] | ≥ 70% | ≥ 70% | –
CCn1c(OC)nn(-c2ccc3nn(-c4cccnc4)cc3c2)c1=O [Compound 123, 4-ethyl-5-methoxy-2-(2-(pyridin-3-yl)-2H-indazol-5-yl)-2,4-dihydro-3H-1,2,4-triazol-3-one] | ≥ 70% | ≥ 70% | –
COc1nn(-c2ccc3nn(-c4cccnc4)cc3c2)c(=O)n1Cc1ccc(F)cc1 [Compound 124, 4-(4-fluorobenzyl)-5-methoxy-2-(2-(pyridin-3-yl)-2H-indazol-5-yl)-2,4-dihydro-3H-1,2,4-triazol-3-one] | ≥ 70% | ≥ 70% | –
CCCS(=O)(CC)=Nc1ccc2nn(-c3cccnc3)cc2c1 (centres unmarked) [Compound 137] | – | ≥ 70% | ≥ 70%
CS(C)(=O)=Nc1cnc2nn(-c3cccnc3)cc2c1 [Compound 146] | – | ≥ 70% | ≥ 70%
CCS(C)(=O)=Nc1cnc2nn(-c3cccnc3)cc2c1 (centres unmarked) [Compound 147] | – | ≥ 70% | ≥ 70%
CCS(=O)(=Nc1cnc2nn(-c3cccnc3)cc2c1)C(C)C (centres unmarked) [Compound 148] | – | ≥ 70% | ≥ 70%
CS(=O)(=Nc1ccc2nn(-c3cccnc3)cc2n1)C1CCCCC1 (centres unmarked) [Compound 216] | ≥ 70% | ≥ 70% | –
CC(C)S(C)(=O)=Nc1ccc(Cl)c2nn(-c3cccnc3)cc12 (centres unmarked) [Compound 218] | ≥ 70% | ≥ 70% | –
CS(C)(=O)=Nc1ccc2nn(-c3cccnc3)cc2n1 [Compound 224] | ≥ 70% | ≥ 70% | –
COCCS(C)(=O)=Nc1ccc2nn(-c3cccnc3)cc2n1 (centres unmarked) [Compound 236] | ≥ 70% | ≥ 70% | ≥ 70%

SMILES | mortality at 300 ppm [1] | mortality at 300 ppm [2] | mortality at 300 ppm [3]
COCCS(C)(=O)=Nc1ccc2nn(-c3cncnc3)cc2n1 (centres unmarked) [Compound 237] | ≥ 70% | ≥ 70% | –
CC(C)S(C)(=O)=Nc1ccc2nn(-c3cccnc3)cc2n1 (centres unmarked) [Compound 238] | ≥ 70% | ≥ 70% | ≥ 70%
CCCS(C)(=O)=Nc1ccc2nn(-c3cccnc3)cc2n1 (centres unmarked) [Compound 239] | ≥ 70% | ≥ 70% | –
CCS(C)(=O)=Nc1ccc2nn(-c3cccnc3)cc2n1 (centres unmarked) [Compound 248] | ≥ 70% | ≥ 70% | –
CCS(=O)(CC)=Nc1ccc2nn(-c3cccnc3)cc2n1 [Compound 249] | ≥ 70% | ≥ 70% | –
CCCS(=O)(=Nc1ccc2nn(-c3cccnc3)cc2n1)C(C)C (centres unmarked) [Compound 254] | ≥ 70% | ≥ 70% | –
CC(C)S(=O)(=Nc1ccc2nn(-c3cccnc3)cc2n1)C(C)C [Compound 255] | ≥ 70% | ≥ 70% | –
CCC(C)S(=O)(=Nc1ccc2nn(-c3cccnc3)cc2n1)C(C)C (centres unmarked) [Compound 287] | ≥ 70% | ≥ 70% | –
CC(C)S(=O)(CC1CC1)=Nc1ccc2nn(-c3cccnc3)cc2n1 (centres unmarked) [Compound 288] | ≥ 70% | ≥ 70% | –
CCC(C)S(=O)(=Nc1ccc2nn(-c3cccnc3)cc2c1)C(C)C (centres unmarked) [Compound 291] | ≥ 70% | ≥ 70% | –
CS(C)(=O)=Nc1ccc2nn(-c3cncc(F)c3)cc2n1 [Compound 306] | ≥ 70% | ≥ 70% | –
CCS(=O)(=Nc1ccc2nn(-c3cncc(F)c3)cc2n1)C(C)C (centres unmarked) [Compound 312] | ≥ 70% | ≥ 70% | –
CCS(C)(=O)=Nc1ccc2nn(-c3cncnc3)cc2n1 (centres unmarked) [Compound 314] | ≥ 70% | ≥ 70% | –
CCN=S(=O)(c1ccc2nn(-c3cccnc3)cc2c1)C(C)C (centres unmarked) [Compound 383] | ≥ 70% | ≥ 70% | –
CCN=S(=O)(CC1CC1)c1ccc2nn(-c3cccnc3)cc2c1 (centres unmarked) [Compound 388] | – | ≥ 70% | ≥ 70%
CCS(=N)(=O)c1ccc2nn(-c3cncnc3)cc2c1 (centres unmarked) [Compound 455, ethyl(imino)(2-(pyrimidin-5-yl)-2H-indazol-5-yl)-λ^6-sulfanone] | ≥ 70% | ≥ 70% | –
N=S(=O)(CC(F)(F)F)c1ccc2nn(-c3cncnc3)cc2c1 (centres unmarked) [Compound 458, imino(2-(pyrimidin-5-yl)-2H-indazol-5-yl)(2,2,2-trifluoroethyl)-λ^6-sulfanone] | ≥ 70% | ≥ 70% | –
CCCS(=N)(=O)c1ccc2nn(-c3cncc(F)c3)cc2c1 (centres unmarked) [Compound 478, (2-(5-fluoropyridin-3-yl)-2H-indazol-5-yl)(imino)(propyl)-λ^6-sulfanone] | ≥ 70% | ≥ 70% | –
CCC(C)S(=N)(=O)c1ccc2nn(-c3cncc(F)c3)cc2c1 (centres unmarked) [Compound 479, sec-butyl(2-(5-fluoropyridin-3-yl)-2H-indazol-5-yl)(imino)-λ^6-sulfanone] | ≥ 70% | ≥ 70% | –
CCC(CC)S(=N)(=O)c1ccc2nn(-c3cncc(F)c3)cc2c1 (centres unmarked) [Compound 480, (2-(5-fluoropyridin-3-yl)-2H-indazol-5-yl)(imino)(pentan-3-yl)-λ^6-sulfanone] | ≥ 70% | ≥ 70% | –
N=S(=O)(CCCF)c1ccc2nn(-c3cncc(F)c3)cc2c1 (centres unmarked) [Compound 482, (3-fluoropropyl)(2-(5-fluoropyridin-3-yl)-2H-indazol-5-yl)(imino)-λ^6-sulfanone] | ≥ 70% | ≥ 70% | –
CC(C)CS(=N)(=O)c1ccc2nn(-c3cccnc3)cc2c1 (centres unmarked) [Compound 557, imino(isobutyl)(2-(pyridin-3-yl)-2H-indazol-5-yl)-λ^6-sulfanone] | ≥ 70% | ≥ 70% | –
CC(=O)N=S(=O)(c1ccc2nn(-c3cccnc3)cc2c1)C1CCCC1 (centres unmarked) [Compound 581] | – | ≥ 70% | –
